Source: US7566733B2, “Benzimidazole derivatives useful as selective androgen receptor modulators (sarms)” (priority 2004, dated 2009)

Tested on: castrated male Sprague Dawley rats
Experiment: Ventral Prostate and Seminal Vesicle Weight In Vivo Assay; also: key: active: the non weight adjusted prostate weight was ≦40 mg or the % Inhibition prostate weight, body weight adjusted was ≧40%@2 mg/day dosage; inactive: did not meet the specified criteria defined above
Conditions: inhibition of testosterone-enhanced prostate weight; immature castrated rats, once daily for five days, usually orally 40 mg/kg, with testosterone propionate 2 mg/kg s.c.
Procedure: Ventral Prostate and Seminal Vesicle Weight In Vivo Assay; also: key: active: the non weight adjusted prostate weight was ≦40 mg or the % Inhibition prostate weight, body weight adjusted was ≧40%@2 mg/day dosage; inactive: did not meet the specified criteria defined above
Immature (approximately 50 g) castrated male Sprague Dawley rats (Charles River) were treated once daily for five days with test compound (usually given orally at 40 mg/kg in a volume of 0.3 mL, in 30% cyclodextrin or 0.5% methylcellulose vehicle) and with testosterone propionate (given subcutaneously by injection at the nape of the neck at 2 mg/kg, in a volume of 0.1 mL in sesame oil). On the sixth day, the rats were euthanized by asphyxiation in carbon dioxide. Ventral prosatates and seminal vesicles were removed and their wet weights determined. Test compound activity was determined as the percent inhibition of testosterone-enhanced tissue weights, with a vehicle-treated control group set to zero percent and a testosterone alone-treated control group set to 100%.
Representative compounds of the present invention were tested according to the procedure described, with results as listed in Table 7 below. A test compound is listed as “active” if the non weight adjusted prostate weight was ≦40 mg or the % Inhibition prostate weight, body weight adjusted was ≧40%@2 mg/day dosage. ID50's, if determined, of ≦15 mg/day also indicated an “active” compound.

Row | Structure (SMILES) | Activity
1 | FC(F)(F)Cc1nc2cc(Cl)c(Cl)cc2n1Cc1ccncc1 [Compound 108, 5,6-Dichloro-1-pyridin-4-ylmethyl-2-(2,2,2-trifluoro-ethyl)-1H-benzoimidazole] | active
2 | N#Cc1cccc(Cn2c(CC(F)(F)F)nc3cc(Cl)c(Cl)cc32)c1 [Compound 109, 3-[5,6-Dichloro-2-(2,2,2-trifluoro-ethyl)-benzoimidazol-1-ylmethyl]-benzonitrile] | active
3 | N#Cc1ccccc1Cn1c(CC(F)(F)F)nc2cc(Cl)c(Cl)cc21 [Compound 110, 2-[5,6-Dichloro-2-(2,2,2-trifluoro-ethyl)-benzoimidazol-1-ylmethyl]-benzonitrile] | active
4 | Cc1cc2nc(C(O)C(F)(F)F)[nH]c2cc1C (stereo not drawn) [Compound 111, 1-(5,6-Dimethyl-1H-benzoimidazol-2-yl-)2,2,2-trifluoro-ethanol] | inactive
5 | OC(c1nc2cc(Cl)c(F)cc2[nH]1)C(F)(F)F (stereo not drawn) [Compound 112, 1-(5-Chloro-6-fluoro-1H-benzoimidazol-2-yl-)2,2,2-trifluoro-ethanol] | active
6 | OC(c1nc2cc(F)c(F)cc2[nH]1)C(F)(F)F (stereo not drawn) [Compound 113, 1-(5,6-Difluoro-1H-benzoimidazol-2-yl-)2,2,2-trifluoro-ethanol] | inactive
7 | O=C(c1nc2cc(Cl)c(Cl)cc2[nH]1)C(F)(F)F [Compound 114, 1-(5,6-DiChloro-1H-benzoimidazol-2-yl)-2,2,2-trifluoro-ethanone] | active
8 | Fc1ccc(OCCn2c(CC(F)(F)F)nc3cc(Cl)c(Cl)cc32)cc1 [Compound 115, 5,6-Dichloro-1-[2-(4-fluoro-phenoxy)-ethyl]-2-(2,2,2-trifluoro-ethyl)-1H-benzoimidazole] | active
9 | N#Cc1ccc(Cn2c(CC(F)(F)F)nc3cc(Cl)c(Cl)cc32)cc1 [Compound 116, 4-[5,6-Dichloro-2-(2,2,2-trifluoro-ethyl)-benzoimidazol-1-ylmethyl]-benzonitrile] | active
10 | Fc1ccccc1Cn1c(CC(F)(F)F)nc2cc(Cl)c(Cl)cc21 [Compound 117, 5,6-Dichloro-1-(2-fluoro-benzyl)-2-(2,2,2-trifluoro-ethyl)-1H-benzoimidazole] | active
11 | Fc1cccc(Cn2c(CC(F)(F)F)nc3cc(Cl)c(Cl)cc32)c1 [Compound 119, 5,6-Dichloro-1-(3-fluoro-benzyl)-2-(2,2,2-trifluoro-ethyl)-1H-benzoimidazole] | active
12 | FC(F)(F)Cc1nc2cc(Cl)c(Cl)cc2n1Cc1cccc(Cl)c1 [Compound 120, 5,6-Dichloro-1-(3-chloro-benzyl)-2-(2,2,2-trifluoro-ethyl)-1H-benzoimidazole] | active
13 | FC(F)(F)Cc1nc2cc(Cl)c(Cl)cc2n1Cc1ccc(Cl)cc1 [Compound 121, 5,6-Dichloro-1-(4-chloro-benzyl)-2-(2,2,2-trifluoro-ethyl)-1H-benzoimidazole] | active
14 | Fc1cccc(OCCn2c(CC(F)(F)F)nc3cc(Cl)c(Cl)cc32)c1 [Compound 123, 5,6-Dichloro-1-[2-(3-fluoro-phenoxy)-ethyl]-2-(2,2,2-trifluoro-ethyl)-1H-benzoimidazole] | inactive
15 | FC(F)(F)Cc1nc2cc(Cl)c(Cl)cc2n1CCOc1ccc(Cl)cc1 [Compound 124, 5,6-Dichloro-1-[2-(4-chloro-phenoxy)-ethyl]-2-(2,2,2-trifluoro-ethyl)-1H-benzoimidazole] | active
16 | FC(F)(F)Cc1nc2cc(Cl)c(Cl)cc2n1Cc1ccccc1Cl [Compound 125, 5,6-Dichloro-1-(2-chloro-benzyl)-2-(2,2,2-trifluoro-ethyl)-1H-benzoimidazole] | active
17 | Cc1onc(-c2ccccc2)c1C(=O)Cn1c(CC(F)(F)F)nc2cc(Cl)c(Cl)cc21 [Compound 126, 2-[5,6-Dichloro-2-(2,2,2-trifluoro-ethyl)-benzoimidazol-1-yl]-1-(5-methyl-3-phenyl-isoxazol-4-yl)-ethanone] | inactive
18 | Cc1cc2[nH]c(C(O)C(F)(F)F)nc2cc1Cl (stereo not drawn) [Compound 128, 1-(5-Chloro-6-methyl-1H-benzoimidazol-2-yl-)2,2,2-trifluoro-ethanol] | inactive
19 | COc1cccc(Cn2c(CC(F)(F)F)nc3cc(Cl)c(Cl)cc32)c1 [Compound 129, 5,6-Dichloro-1-(3-methoxy-benzyl)-2-(2,2,2-trifluoro-ethyl)-1H-benzoimidazole] | inactive
20 | FC(F)(F)Cc1nc2cc(Cl)c(Cl)cc2n1Cc1ccc(-n2cccn2)cc1 [Compound 131, 5,6-Dichloro-1-(4-pyrazol-1-yl-benzyl)-2-(2,2,2-trifluoro-ethyl)-1H-benzoimidazole] | inactive

Row | Structure (SMILES) | Activity
21 | FC(F)(F)Cc1nc2cc(Cl)c(Cl)cc2n1Cc1ccc(-c2csnn2)cc1 [Compound 132, 5,6-Dichloro-1-(4-[1,2,3]thiadiazol-4-yl-benzyl)-2-(2,2,2-trifluoro-ethyl)-1H-benzoimidazole] | inactive
22 | Cc1oncc1Cn1c(CC(F)(F)F)nc2cc(Cl)c(Cl)cc21 [Compound 133, 5,6-Dichloro-1-(5-methyl-isoxazol-4-ylmethyl)-2-(2,2,2-trifluoro-ethyl)-1H-benzoimidazole] | active
23 | FC(F)(F)Cc1nc2cc(Cl)c(Cl)cc2n1Cc1cccc(OC(F)(F)F)c1 [Compound 134, 5,6-Dichloro-2-(2,2,2-trifluoro-ethyl)-1-(3-trifluoromethoxy-benzyl)-1H-benzoimidazole] | inactive
24 | N#Cc1cc2nc(C(O)C(F)(F)F)[nH]c2cc1C(F)(F)F (stereo not drawn) [Compound 135, 2-(2,2,2-Trifluoro-1-hydroxy-ethyl)-6-trifluoromethyl-1H-benzoimdazole-5-carbonitrile] | inactive
25 | N#Cc1ccc(OCCn2c(CC(F)(F)F)nc3cc(Cl)c(Cl)cc32)cc1 [Compound 136, 4-{2-[5,6-Dichloro-2-(2,2,2-trifluoro-ethyl)-benzoimidazol-1-yl]-ethoxy}-benzonitrile] | active
26 | O=[N+]([O-])c1ccccc1Cn1c(CC(F)(F)F)nc2cc(Cl)c(Cl)cc21 [Compound 137, 5,6-Dichloro-1-(2-nitro-benzyl)-2-(2,2,2-trifluoro-ethyl)-1H-benzoimidazole] | active
27 | FC(F)(F)Cc1nc2cc(Cl)c(Cl)cc2n1Cc1ccc(-n2cccc2)cc1 [Compound 138, 5,6-Dichloro-1-(4-pyrrol-1-yl-benzyl)-2-(2,2,2-trifluoro-ethyl)-1H-benzoimidazole] | active
28 | O=[N+]([O-])c1cccc(Cn2c(CC(F)(F)F)nc3cc(Cl)c(Cl)cc32)c1 [Compound 139, 5,6-Dichloro-1-(3-nitro-benzyl)-2-(2,2,2-trifluoro-ethyl)-1H-benzoimidazole] | active
29 | FC(F)(F)Cc1nc2cc(Cl)c(Cl)cc2n1Cc1ccc(SC(F)(F)F)cc1 [Compound 140, 5,6-Dichloro-2-(2,2,2-trifluoro-ethyl)-1-(4-trifluoromethvlsulfanvl-benzvl)-1H-benzoimidazole] | inactive
30 | CS(=O)(=O)c1ccc(Cn2c(CC(F)(F)F)nc3cc(Cl)c(Cl)cc32)cc1 [Compound 142, 5,6-Dichloro-1-(4-methanesulfonyl-benzyl)-2-(2,2,2-trifluoro-ethyl)-1H-benzoimidazole] | inactive
31 | CC/C(Cn1c(CC(F)(F)F)nc2cc(Cl)c(Cl)cc21)=N/O [Compound 144, 1-[5,6-Dichloro-2-(2,2,2-trifluoro-ethyl)-benzoimidazol-1-yl]-butan-2-one Oxime] | active
32 | FC(F)(F)Cc1nc2cc(Cl)c(Cl)cc2n1Cc1ccc(OCc2ccccc2)cc1 [Compound 146, 1-(4-Benzyloxy-benzyl)-5,6-dichloro-2-(2,2,2-trifluoro-ethyl)-1H-benzoimidazole] | active
33 | COc1ccc(Cn2c(CC(F)(F)F)nc3cc(Cl)c(Cl)cc32)cc1 [Compound 147, 5,6-Dichloro-1-(4-methoxy-benzyl)-2-(2,2,2-trifluoro-ethyl)-1H-benzoimidazole] | active
34 | CCC(O)Cn1c(CC(F)(F)F)nc2cc(Cl)c(Cl)cc21 (stereo not drawn) [Compound 148, 1-[5,6-Dichloro-2-(2,2,2-trifluoro-ethyl)-benzoimidazol-1-yl]-butan-2-ol] | active
35 | FC(F)(F)Cc1nc2cc(Cl)c(Cl)cc2n1Cc1ccc(Br)cc1 [Compound 149, 1-(4-Bromo-benzyl)-5,6-dichloro-2-(2,2,2-trifluoro-ethyl)-1H-benzoimidazole] | active
36 | CCOC(=O)c1ccc(Cn2c(CC(F)(F)F)nc3cc(Cl)c(Cl)cc32)cc1 [Compound 150, 4-[5,6-Dichloro-2-(2,2,2-trifluoro-ethyl)-benzoimidazol-1-ylmethyl]-benzoic Acid Ethyl Ester] | active
37 | FC(F)(F)Cc1nc2cc(Cl)c(Cl)cc2n1Cc1ccccc1Br [Compound 151, 1-(2-Bromo-benzyl)-5,6-dichloro-2-(2,2,2-trifluoro-ethyl)-1H-benzoimidazole] | active
38 | FC(c1nc2cc(Cl)c(Cl)cc2[nH]1)C(F)(F)F (stereo not drawn) [Compound 152, 5,6-Dichloro-2-(1,2,22-tetrafluoro-ethyl)-1H-benzoimidazole] | active
39 | O=Cc1ccc(Cn2c(CC(F)(F)F)nc3cc(Cl)c(Cl)cc32)cc1 [Compound 153, 4-[5,6-Dichloro-2-(trifluoro-ethyl)-benzoimidazol-1-ylmethyl]-benzaldehyde] | inactive
